Measured values reported in patent US8354412B2, “Beta-3 receptor ligands and their use in therapy” (Universita' Degli Studi di Bari, priority 2006, dated 2013).
Like-named read-outs stand apart in the source and are kept apart here.

Tests used:
[1] = molecular target: T1, cloned human β1-adrenergic receptor (Homo sapiens, UniProt P08588); experiment: [3H]-dihydroalprenolol binding on CHO cell membranes, β1-adrenergic receptor
T1 construct: expressed in transfected cells; host or cells: CHO (membranes)
T1 sequence (P08588 whole entry): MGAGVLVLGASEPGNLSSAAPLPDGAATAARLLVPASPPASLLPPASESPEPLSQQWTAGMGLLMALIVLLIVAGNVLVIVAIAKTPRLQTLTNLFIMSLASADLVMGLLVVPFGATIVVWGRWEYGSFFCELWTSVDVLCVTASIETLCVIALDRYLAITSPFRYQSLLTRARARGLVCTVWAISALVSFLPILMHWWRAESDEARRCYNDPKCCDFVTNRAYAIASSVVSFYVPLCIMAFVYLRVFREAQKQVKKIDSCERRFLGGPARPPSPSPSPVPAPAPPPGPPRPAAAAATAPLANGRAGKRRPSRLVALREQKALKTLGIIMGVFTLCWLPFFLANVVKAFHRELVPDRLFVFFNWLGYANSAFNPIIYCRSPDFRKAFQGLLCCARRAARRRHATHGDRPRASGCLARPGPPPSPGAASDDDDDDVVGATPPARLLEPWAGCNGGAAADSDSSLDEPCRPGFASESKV
Procedure: (§1) The cell lines of “Chinese hamster ovary” (CHO) that individually express the three subtypes of the human adrenergic receptor (β1, β2 or β3 were grown at 37° C. in an atmosphere composed of 5% of CO2 and 95% of air in a culture medium of Dulbecco's Modified Eagle Medium with a nutrient mixture of F12 (DMEM/F12) supplemented with 10% of bovine fetal Serum, 2 mM of L-glutamine, 100 units/ml of penicillin G and 100 μg/ml of […].
(§2) The preconfluence cells were washed with cold PBS, removed from the surface of the plate, collected in cold lysis buffer (10×10^6/ml; 5 mM Tris/HCl, 2 mM EDTA, pH 7.4 at 4° C.) and homogenized with a Brinkmann Polytron (5 for 3×10 secs). The cell membranes obtained were then […] for 10 mins at 4° C. at 1000 g. The supernatant was centrifuged at 10000 g for 30 min. at 4° C. The resultant membrane pellet was resuspended in cold incubation buffer (50 mM Tris/HCl, 10 mM MgCl2, pH 7.4 for the binding experiments on the β1-adrenergic receptors; 50 mM Tris/HCl, pH 7.4 for the binding experiments of on the β2-adrenergic receptors) and its protein content was then determined. The membrane suspension obtained was used immediately or stored at −80° C. until used in the binding experiments.
(§3) The saturation experiments were conducted by incubating the cell membranes (50 μg of protein) in 500 μl of incubation buffer, containing increasing concentrations of [^3H]-dihydroalprenolol (0.1 nM, 0.5 nM, 1 nM, 3 nM, 5 nM, 10 nM). The β1-adrenergic receptors were incubated at 30° C. for 30 min. while the incubation lasted 90 min. in the case of the β2-adrenergic receptor. […] The filters were then washed (3×1 ml) with cold incubation buffer. The residual radioactivity of the filters was measured using a Beckmann LS6500 Multi-purpose scintillator.
(§4) The competitive experiments were conducted by incubation of 50 μg of protein with increasing quantities of the compound under examination (from 10^−9M to 10^−4M) and 4 nM [^3H]-dihydroalprenolol for the β1-adrenergic receptor or 0.4 nM for the β2-adrenergic receptor, in a total volume of 500 μl of incubation buffer.

[2] = molecular target: T2, cloned human β2-adrenergic receptor (Homo sapiens, UniProt P07550); experiment: [3H]-dihydroalprenolol binding on CHO cell membranes, β2-adrenergic receptor
T2 construct: expressed in transfected cells; host or cells: CHO (membranes)
T2 sequence (P07550 whole entry): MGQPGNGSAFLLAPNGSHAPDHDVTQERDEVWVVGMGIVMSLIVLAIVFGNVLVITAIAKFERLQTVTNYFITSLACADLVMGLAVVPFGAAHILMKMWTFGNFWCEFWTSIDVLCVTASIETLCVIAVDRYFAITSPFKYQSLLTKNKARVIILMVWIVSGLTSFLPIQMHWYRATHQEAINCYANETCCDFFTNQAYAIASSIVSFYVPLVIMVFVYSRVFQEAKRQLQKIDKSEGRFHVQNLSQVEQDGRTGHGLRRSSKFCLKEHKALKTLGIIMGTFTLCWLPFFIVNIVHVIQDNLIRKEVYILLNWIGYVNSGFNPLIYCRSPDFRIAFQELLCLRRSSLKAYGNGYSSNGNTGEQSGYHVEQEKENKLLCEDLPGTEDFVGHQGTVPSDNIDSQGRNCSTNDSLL
Procedure: as §1, §2, §3, §4

[3] = molecular target: T3, cloned human beta-3 adrenergic receptor (Homo sapiens, UniProt P13945); experiment: cAMP accumulation (DELFIA cAMP-Eu assay) in CHO-K1 cells expressing the beta-3 adrenergic receptor; format: cell-based; conditions: for Emax: CHO-K1, read-out: Intrinsic Activity (IA %); for EC50: concentration of ligand producing 50% of maximum cAMP accumulation, CHO-K1 human β3, SEM, n ≧ 3; for type of activity on the beta-3 adrenergic receptor (in words): statement in the description
T3 construct: expressed in transfected cells; host or cells: CHO-K1
T3 sequence (P13945 whole entry): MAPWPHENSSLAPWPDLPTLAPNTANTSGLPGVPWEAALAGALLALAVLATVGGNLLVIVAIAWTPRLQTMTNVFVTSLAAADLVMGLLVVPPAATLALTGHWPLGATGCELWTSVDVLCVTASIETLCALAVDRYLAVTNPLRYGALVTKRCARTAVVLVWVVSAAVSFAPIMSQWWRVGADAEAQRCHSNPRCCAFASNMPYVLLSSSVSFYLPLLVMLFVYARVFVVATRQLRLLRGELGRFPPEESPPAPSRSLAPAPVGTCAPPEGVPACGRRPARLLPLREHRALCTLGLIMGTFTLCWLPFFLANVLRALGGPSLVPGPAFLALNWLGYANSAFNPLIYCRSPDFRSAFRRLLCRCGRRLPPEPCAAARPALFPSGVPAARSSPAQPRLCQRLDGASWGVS
Procedure: The determination of the beta-3 adrenergic activity of the compounds of general formula (I) was performed by measuring the levels of cAMP in cell lines of CHO-K1 that express the cloned human beta-3 adrenergic receptor. The accumulation of cAMP is directly correlated to the beta-3 adrenergic activity of the compound and is a predictive measure of the effectiveness of the ligand. The accumulation of cAMP produced by the compounds 1a-1h was determined using the Dissociation Enhanced Lanthanide Fluorescence Immunoassay (DELFIA®, Gabriel, D.; Vernier, M.; Pfeifer, M. J.; Dasen, B.; Tenaillon, L.; Bouhelal, R. Assay and Drug Development Technologies 2003, 1, 291-303), endowed with greater sensitivity and greater accuracy than [α-^32P] radioisotope methods (Hoffmann, C.; Leitz, M. R.; Obendorf-Maass, S.; Lohse, M. J.; Klotz, K.-N. Naunyn-Schmiedeberg's Arch. Pharmacol. 2004, 369, 151-159) or [^3H] (Nannies, K. M.; Briend-Sutren, M. M.; Emorine, L. J.; Delavier-Klutchko, C.; Marullo, S.; Strosberg, A. D. Eur. J. Biochem. 1991, 196, 357-361) of determining the levels of cAMP in cell lines.
as §1
The DELFIA test (Dissociation Enhanced Lanthanide […] Immuno Assay) used for measuring the levels of cAMP was performed according to the protocol supplied by PerkinElmer Life Science. The optimization of the experimental conditions (quantity of cells, times of incubation) is reported below.
A plate of confluence cells was trypsinized and the cells were resuspended in the aforementioned culture medium, sown at a concentration of 50000 cells/200 μl per well in a 96-well plate and cultivated overnight in a CO2 incubator. The culture medium was then aspirated from every well and substituted with 100 μl of culture substrate without serum, preheated at 37° C. The plate was then put back into a CO2 incubator for 30 mins at 37° C. 50 μl of IBMX (3-isobutyl-1-methylxanthine) 1 mM, an inhibitor of the phosphodiesterase was then added to all the wells. In some wells 50 μl of forskolin (compound used for the validation of the DELFIA) was added at different concentrations (100 nM, 500 nM, 1 μM, 10 μM, 50 μM) and in the other wells 50 μl of the compounds to be tested at the same concentrations as the forskolin; the plate was then again incubated for 30 min at 37° C. The cells, at this point, were lysed and incubated at room temperature for 5 min. The plate was used immediately for measuring the levels of cAMP or stored at 4° C. until the measurement was carried out. The fluorescence was determined using a multilabel time-resolved fluorimetry technique performed on a PerkinElmer 1420 Victor®. The excitation and emission wavelengths were 340 nm and 615 nm respectively.

[4] = molecular target: T2, cloned human β2-adrenergic receptor; experiment: [3H]-dihydroalprenolol binding on CHO cell membranes, β2-adrenergic receptor; conditions: compound at 10 μM
[5] = molecular target: T1, cloned human β1-adrenergic receptor; experiment: [3H]-dihydroalprenolol binding on CHO cell membranes, β1-adrenergic receptor; conditions: compound at 10 μM
[6] = human β1, Cheng-Prusoff, 4 nM [3H]-dihydroalprenolol, read-out: Binding Ki, β1
[7] = human β2, Cheng-Prusoff, 0.4 nM [3H]-dihydroalprenolol, read-out: Binding Ki, β2
[8] = maximum cAMP response, isoproterenol 10^−4 M = 100%, absence of agonists = 0%

Structure (SMILES)	Ki [1, 6]	Ki [2, 7]	Emax [3, 8]	EC50 [3]	type of activity on the beta-3 adrenergic receptor (in words) [3]	Ki [1]	Ki [2]	Intrinsic Activity (IA %) [3, 8]	% activation at 10 μM, β2 [4]	% activation at 10 μM, β1 [5]
COc1ccc(S(=O)(=O)N2CCN(C[C@H](O)COc3cccc(N)c3)CC2)cc1 [Compound 2e, (S)-1-(3-aminophenoxy)-2-hydroxy-3-[4-(4-methoxyphenylsulfonyl)piperazin-1-yl]propane]	> 7000 nM	> 5000 nM	–	–	–	–	–	–	–	–
COc1ccc(S(=O)(=O)N2CCN(C[C@H](O)COc3cccc4ccccc34)CC2)cc1 [Compound 2i, (S)-2-hydroxy-1-(napht-1-yloxy)-3-[4-(4-methoxyphenylsulfonyl)piperazin-1-yl)propane]	> 7000 nM	> 2000 nM	43%	5.24 ± 1.08 nM	–	–	–	–	–	–
C[C@H](Oc1ccc(CCNC[C@H](O)c2ccccc2)cc1)C(=O)O [Compound 1f, (2S)-(−)-2-{4-[2-((2R)-2-phenyl-2-hydroxyethylamino)ethyl]phenoxy}propionic acid]	> 7000 nM	> 5000 nM	50%	2.2 ± 0.7 nM	particularly active compound as agonist	–	–	–	–	–
CC(Oc1ccc(CCNCC(O)c2ccccc2)cc1)C(=O)O (racemic) [Compound 1d, (±)-2-{4-[2-(2-phenyl-2-hydroxyethylamino)ethyl]phenoxy}propionic acid]	> 7000 nM	> 5000 nM	65%	3.8 ± 0.7 nM	–	–	–	–	–	–
COc1ccc(S(=O)(=O)N2CCN(C[C@H](O)COc3ccccc3)CC2)cc1 [Compound 2a, (S)-2-hydroxy-3-[4-(4-methoxyphenylsulfonyl)piperazin-1-yl]-1-phenoxy propane]	> 7000 nM	> 5000 nM	58%	5 ± 1.9 nM	–	–	–	–	–	–
COc1ccc(S(=O)(=O)N2CCN(C[C@H](O)COc3cccc4[nH]c5ccccc5c34)CC2)cc1 [Compound 2j, (S)-1-(Carbazol-4-yloxy)-2-hydroxy-3-[4-(4-methoxybenzenesulfonyl)piperazin-1-yl)propane]	> 7000 nM	177 nM	38%	3.8 ± 1.8 nM	–	–	–	–	–	–
COc1ccc(S(=O)(=O)N2CCN(C[C@H](O)COc3ccc(O)cc3)CC2)cc1 [Compound 2b, (S)-2-hydroxy-1-(4-hydroxyphenoxy)-3-[4-(4-methoxyphenylsulfonyl)piperazin-1-yl]propane]	> 7000 nM	> 5000 nM	67%	1.97 ± 0.92 nM	–	–	–	–	–	–
CC(C)(Oc1ccc(CCNC[C@@H](O)c2ccccc2)cc1)C(=O)O [Compound 1c, (2S)-(+)-2-{4-[2-(2-phenyl-2-hydroxyethylamino)ethyl]phenoxy}-2-methylpropionic acid]	> 7000 nM	> 5000 nM	76%	3.4 ± 0.8 nM	–	–	–	–	–	–
CC(C)(Oc1ccc(CCNCC(O)c2ccccc2)cc1)C(=O)O (racemic) [Compound 1a, (±)-2-{4-[2-(2-phenyl-2-hydroxyethylamino)ethyl]phenoxy}-2-methylpropionic acid]	> 7000 nM	> 5000 nM	68%	4.9 ± 0.25 nM	behaves as an agonist of the beta-3 adrenergic receptor independently of the configuration of the chiral atom	–	–	–	–	–
C[C@H](NCCc1ccc(O[C@H](C)C(=O)O)cc1)[C@@H](O)c1ccccc1 [Compound 1k, (R)-2-[4-[2-((1S,2S)-1-hydroxy-1-phenylpropan-2-yl-amino)ethyl]phenoxy]propionic acid]	–	–	53%	1.97 ± 0.9 nM	–	> 7000 nM	> 5000 nM	–	–	–
C[C@@H](Oc1ccc(CCN[C@H](C)[C@@H](O)c2ccccc2)cc1)C(=O)O [Compound 1j]	> 7000 nM	> 5000 nM	–	211 ± 10 nM	–	–	–	(39) %	21%	20%
C[C@@H](Oc1ccc(CCNC[C@H](O)c2ccccc2)cc1)C(=O)O [Compound 1h, (2R)-(−)-2-{4-[2-((2R)-2-phenyl-2-hydroxyethylamino)ethyl]phenoxy}propionic acid]	> 7000 nM	> 5000 nM	35%	107 ± 37 nM	–	–	–	–	–	–

Continued, in another order:

Ki [1, 6]	Ki [2, 7]	Emax [3, 8]	EC50 [3]	type of activity on the beta-3 adrenergic receptor (in words) [3]	Structure (SMILES)	Ki [1]	Ki [2]	Intrinsic Activity (IA %) [3, 8]	% activation at 10 μM, β2 [4]	% activation at 10 μM, β1 [5]
> 7000 nM	> 5000 nM	-73%	176 ± 20 nM	inverse agonist activity	C[C@@H](Oc1ccc(CCNC[C@@H](O)c2ccccc2)cc1)C(=O)O [Compound 1g, (2R)-(+)-2-{4-[2-((2S)-2-phenyl-2-hydroxyethylamino)ethyl]phenoxy}propionic acid]	–	–	–	–	–
> 7000 nM	> 5000 nM	48%	8.3 ± 1.94 nM	–	COc1ccc(S(=O)(=O)N2CCN(C[C@H](O)COc3ccc(OCc4ccccc4)cc3)CC2)cc1 [Compound 2c, (S)-1-(4-benzyloxyphenoxy)-2-hydroxy-3-[4-(4-methoxybenzenesulfonyl)piperazin-1-yl]propane]	–	–	–	–	–
> 7000 nM	> 5000 nM	-64%	192 ± 19 nM	inverse agonist activity	C[C@H](Oc1ccc(CCNC[C@@H](O)c2ccccc2)cc1)C(=O)O [Compound 1e, (2S)-(+)-2-{4-[2-((2S)-2-phenyl-2-hydroxyethylamino)ethyl]phenoxy}propionic acid]	–	–	–	–	–
> 7000 nM	> 5000 nM	72%	3.9 ± 2.1 nM	–	CC(C)(Oc1ccc(CCNC[C@H](O)c2ccccc2)cc1)C(=O)O [Compound 1b, (2R)-(−)-2-{4-[2-(2-phenyl-2-hydroxyethylamino)ethyl]phenoxy}-2-methylpropionic acid]	–	–	–	–	–
> 7000 nM	> 5000 nM	84%	4.1 ± 1.93 nM	–	COc1ccc(S(=O)(=O)N2CCN(C[C@H](O)COc3cccc([N+](=O)[O-])c3)CC2)cc1 [Compound 2d, (S)-2-hydroxy-3-[4-(4-methoxyphenylsulfonyl)piperazin-1-yl]-1-(3-nitrophenoxy)-propane]	–	–	–	–	–
